# Molecular target: T1, hSTING (Homo sapiens, UniProt Q86WV6, G230A/H232R/R293Q/R71H)
# T1 construct: host or cells: THP1-Dual KO-IFNAR2 cells
# Test: STING reporter assay (luciferase) in THP1-Dual KO-IFNAR2 cells stimulated with 2'3'cGAMP
# Format: cell-based
# Details: 2'3'cGAMP 15 μM, 24 h, luciferase reporter activity
# Procedure, shortened: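 THP1-Dual KO-IFNAR2 cells (2×10E6 cells/mL) exposed to compounds at 0.0017-100 μM final, then stimulated with 2′3′cGAMP (15 μM final) delivered by Lipofectamine 2000 transfection. After 24 h at 37° C, secreted luciferase in supernatant read by QUANTI-Luc luminescence; EC50 calculated.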
# T1 sequence (Q86WV6 whole entry R71H/G230A/H232R/R293Q): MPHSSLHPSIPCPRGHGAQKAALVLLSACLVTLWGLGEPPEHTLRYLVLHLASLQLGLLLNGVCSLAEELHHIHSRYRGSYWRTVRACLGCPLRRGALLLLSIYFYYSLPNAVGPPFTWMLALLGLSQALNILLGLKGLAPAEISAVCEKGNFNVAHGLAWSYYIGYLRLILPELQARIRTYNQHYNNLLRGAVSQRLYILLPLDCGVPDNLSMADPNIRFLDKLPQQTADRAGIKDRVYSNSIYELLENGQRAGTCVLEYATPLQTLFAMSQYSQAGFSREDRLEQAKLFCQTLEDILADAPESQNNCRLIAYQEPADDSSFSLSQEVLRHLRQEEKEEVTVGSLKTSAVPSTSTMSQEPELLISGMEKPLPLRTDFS
row,SMILES,EC50 [nM]
1,"O=C(Nc1cnn(C2CCN(CCC(F)(F)F)CC2)c1)Nc1c[nH]c2ccc(Cl)cc12 [Compound 223, 1-(5-chloro-1H-indol-3-yl)-3-(1-(1-(3,3,3-trifluoropropyl)piperidin-4-yl)-1H-pyrazo1-4-yl)urea]",1000 to 5000
2,"O=C(Nc1ccc(C2CC(F)(F)C2)c(Cl)c1)Nc1c[nH]c2cc(F)c(F)cc12 [Compound 225, 1-(3-chloro-4-(3,3-difluorocyclobutyl)phenyl)-3-(5,6-difluoro-1H-indol-3-yl)urea]",200 to 1000
3,"O=C(Nc1ccc(C2CC(F)(F)C2)c(Cl)c1)Nc1c[nH]c2ccc(Cl)cc12 [Compound 226, 1-(5-chloro-1H-indol-3-yl)-3-(3-chloro-4-(3,3-difluorocyclobutyl)phenyl)urea]",40 to 200
4,"O=C(Nc1cnc(C2CC(F)(F)C2)c(F)c1)Nc1c[nH]c2ccc(Cl)cc12 [Compound 227, 1-(5-chloro-1H-indol-3-yl)-3-(6-(3,3-difluorocyclobutyl)-5-fluoropyridin-3-yl)urea]",40 to 200
5,"COCCN(C(=O)Nc1c[nH]c2ccc(Cl)cc12)c1cnc(C2CCC(F)(F)CC2)c(Cl)c1 [Compound 228, 3-(5-chloro-1H-indol-3-yl)-1-(5-chloro-6-(4,4-difluorocyclohexyl)pyridin-3-yl)-1-(2-methoxyethyl)urea]",200 to 1000
6,"CCN(C(=O)Nc1c[nH]c2ccc(Cl)cc12)c1cnc(C2CCN(CC(F)(F)F)CC2)c(Cl)c1 [Compound 229, 3-(5-chloro-1H-indol-3-yl)-1-(5-chloro-6-(1-(2,2,2-trifluoroethyl)piperidin-4-yl)pyridin-3-yl)-1-ethylurea]",200 to 1000
7,"O=C(Nc1cnn(C2CCC(F)(F)CC2)c1)Nc1c[nH]c2cc(F)c(Cl)cc12 [Compound 230, 1-(5-chloro-6-fluoro-1H-indol-3-yl)-3-(1-(4,4-difluorocyclohexyl)-1H-pyrazol-4-yl)urea]",200 to 1000
8,"O=C(Nc1cnc(Cl)c(C2CCC(F)(F)CC2)c1)Nc1c[nH]c2ccc(Cl)cc12 [Compound 231, 1-(5-chloro-1H-indol-3-yl)-3-(6-chloro-5-(4,4-difluorocyclohexyl)pyridin-3-yl)urea]",40 to 200
9,"O=C(Nc1cnc(N2CCC(F)(F)CC2)c(Cl)c1)Nc1c[nH]c2c(Br)cc(Cl)cc12 [Compound 232, 1-(7-bromo-5-chloro-1H-indol-3-yl)-3-(5-chloro-6-(4,4-difluoropiperidin-1-yl)pyridin-3-yl)urea]",200 to 1000
10,"O=C(Nc1cnc(N2CC(C(F)(F)F)C2)c(Cl)c1)Nc1c[nH]c2ccc(Cl)cc12 [Compound 233, 1-(5-chloro-1H-indol-3-yl)-3-(5-chloro-6-(3-(trifluoromethyl)azetidin-1-yl)pyridin-3-yl)urea]",40 to 200
11,"O=C(Nc1cnn(C2CC3(C2)CC(F)(F)C3)c1)Nc1c[nH]c2ccc(Cl)cc12 [Compound 234, 1-(5-chloro-1H-indol-3-yl)-3-(1-(6,6-difluorospiro[3.3]heptan-2-yl)-1H-pyrazo1-4-yl)urea]",40 to 200
12,"O=C(Nc1cnn(CC2CCC2)c1)Nc1c[nH]c2ccc(Cl)cc12 [Compound 235, 1-(5-chloro-1H-indol-3-yl)-3-(1-(cyclobutylmethyl)-1H-pyrazol-4-yl)urea]",200 to 1000
13,"O=C(Nc1cnc(N2CCC3(CC2)CC3(F)F)c(Cl)c1)Nc1c[nH]c2cc(F)c(F)cc12 [Compound 236, 1-(5-chloro-6-(1,1-difluoro-6-azaspiro[2.5]octan-6-yl)pyridin-3-yl)-3-(5,6-difluoro-1H-indol-3-yl)urea]",40 to 200
14,"O=C(Nc1cnc(N2CCC3(CC2)CC3(F)F)c(Cl)c1)Nc1c[nH]c2ccc(Cl)cc12 [Compound 237, 1-(5-chloro-1H-indol-3-yl)-3-(5-chloro-6-(1,1-difluoro-6-azaspiro[2.5]octan-6-yl)pyridin-3-yl)urea]",40 to 200
15,"O=C(Nc1cnc(C2CCN(CC(F)(F)F)C2)c(Cl)c1)Nc1c[nH]c2ccc(Cl)cc12 (stereo not shown) [Compound 238, 1-(5-chloro-1H-indol-3-yl)-3-(5-chloro-6-(1-(2,2,2-trifluoroethyl)pyrrolidin-3-yl)pyridin-3-yl)urea]",40 to 200
16,"O=C(Nc1cnc(N2CCC3(CC2)CC3)c(Cl)c1)Nc1c[nH]c2ccc(F)cc12 [Compound 239, 1-(5-chloro-6-(6-azaspiro[2.5]octan-6-yl)pyridin-3-yl)-3-(5-fluoro-1H-indol-3-yl)urea]",40 to 200
17,"O=C(Nc1cnc(N2CCC3(CC2)CC3)c(F)c1)Nc1c[nH]c2ccc(Cl)cc12 [Compound 240, 1-(5-chloro-1H-indol-3-yl)-3-(5-fluoro-6-(6-azaspiro[2.5]octan-6-yl)pyridin-3-yl)urea]",40 to 200
18,"O=C(Nc1cnc(N2CCC3(CC2)CC3)c(Cl)c1)Nc1c[nH]c2cc(F)c(F)cc12 [Compound 241, 1-(5-chloro-6-(6-azaspiro[2.5]octan-6-yl)pyridin-3-yl)-3-(5,6-difluoro-1H-indol-3-yl)urea]",40 to 200
19,"O=C(Nc1cnc(C2CCN(CCC(F)(F)F)C2)c(Cl)c1)Nc1c[nH]c2ccc(Cl)cc12 (stereo not shown) [Compound 242, 1-(5-chloro-1H-indol-3-yl)-3-(5-chloro-6-(1-(3,3,3-trifluoropropyl)pyrrolidin-3-yl)pyridin-3-yl)urea]",40 to 200

row,SMILES,EC50 [nM]
1,"O=C(Nc1cnc(N2CCC(F)(F)C2)c(Cl)c1)Nc1c[nH]c2ccc(Cl)cc12 [Compound 243, 1-(5-chloro-1H-indol-3-yl)-3-(5-chloro-6-(3,3-difluoropyrrolidin-1-yl)pyridin-3-yl)urea]",40 to 200
2,"O=C(Nc1cnc(N2CC3(C2)CC(F)(F)C3)c(Cl)c1)Nc1c[nH]c2c(Br)cc(Cl)cc12 [Compound 244, 1-(7-bromo-5-chloro-1H-indol-3-yl)-3-(5-chloro-6-(6,6-difluoro-2-azaspiro[3.3]heptan-2-yl)pyridin-3-yl)urea]",1000 to 5000
3,"O=C(Nc1cnc(N2CCN(CCC(F)(F)F)CC2)c(Cl)c1)Nc1c[nH]c2ccc(F)cc12 [Compound 245, 1-(5-chloro-6-(4-(3,3,3-trifluoropropyl)piperazin-1-yl)pyridin-3-yl)-3-(5-fluoro-1H-indol-3-yl)urea]",40 to 200
4,"O=C(Nc1ccc(C2CC(F)(F)C2)c(Cl)c1)Nc1c[nH]c2ccccc12 [Compound 246, 1-(3-chloro-4-(3,3-difluorocyclobutyl)phenyl)-3-(1H-indol-3-yl)urea]",40 to 200
5,"O=C(Nc1cnc(C2CCC(F)(F)CC2)c(Cl)c1)Nc1c[nH]c2c(Br)cc(Cl)cc12 [Compound 247, 1-(7-bromo-5-chloro-1H-indol-3-yl)-3-(5-chloro-6-(4,4-difluorocyclohexyl)pyridin-3-yl)urea]",200 to 1000
6,"O=C(Nc1cnc(C2CCC(F)(F)CC2)c(Cl)c1)Nc1c[nH]c2ccccc12 [Compound 248, 1-(5-chloro-6-(4,4-difluorocyclohexyl)pyridin-3-yl)-3-(1H-indol-3-yl)urea]",40 to 200
7,"O=C(Nc1cnc(N2CC3(CN(CC(F)(F)F)C3)C2)c(F)c1)Nc1c[nH]c2ccc(Cl)cc12 [Compound 249, 1-(5-chloro-1H-indol-3-yl)-3-(5-fluoro-6-(6-(2,2,2-trifluoroethyl)-2,6-diazaspiro[3.3]heptan-2-yl)pyridin-3-yl)urea]",200 to 1000
8,"O=C(Nc1cnc(N2CC3(CN(CC(F)(F)F)C3)C2)c(Cl)c1)Nc1c[nH]c2ccccc12 [Compound 250, 1-(5-chloro-6-(6-(2,2,2-trifluoroethyl)-2,6-diazaspiro[3.3]heptan-2-yl)pyridin-3-yl)-3-(1H-indol-3-yl)urea]",200 to 1000
9,"O=C(Nc1cnc(N2CCN(CC(F)(F)F)CC2)c(F)c1)Nc1c[nH]c2cc(F)c(F)cc12 [Compound 251, 1-(5,6-difluoro-1H-indol-3-yl)-3-(5-fluoro-6-(4-(2,2,2-trifluoroethyl)piperazin-1-yl)pyridin-3-yl)urea]",40 to 200
10,"O=C(Nc1ccc(N2CCN(CCC(F)(F)F)CC2)nc1)Nc1c[nH]c2ccc(F)cc12 [Compound 252, 1-(5-fluoro-1H-indol-3-yl)-3-(6-(4-(3,3,3-trifluoropropyl)piperazin-1-yl)pyridin-3-yl)urea]",200 to 1000
11,"O=C(Nc1ccc(N2CCN(CC(F)(F)F)CC2)nc1)Nc1c[nH]c2ccc(F)cc12 [Compound 253, 1-(5-fluoro-1H-indol-3-yl)-3-(6-(4-(2,2,2-trifluoroethyl)piperazin-1-yl)pyridin-3-yl)urea]",200 to 1000
12,"O=C(Nc1ccnc(C2CCC(F)(F)CC2)c1)Nc1c[nH]c2ccccc12 [Compound 254, 1-(2-(4,4-difluorocyclohexyl)pyridin-4-yl)-3-(1H-indol-3-yl)urea]",200 to 1000
13,"O=C(Nc1ccnc(C2CCC(F)(F)CC2)c1)Nc1c[nH]c2ccc(Cl)cc12 [Compound 255, 1-(5-chloro-1H-indol-3-yl)-3-(2-(4,4-difluorocyclohexyl)pyridin-4-yl)urea]",200 to 1000
14,"O=C(Nc1cncc(C2CCC(F)(F)CC2)c1)Nc1c[nH]c2ccc(Cl)cc12 [Compound 256, 1-(5-chloro-1H-indol-3-yl)-3-(5-(4,4-difluorocyclohexyl)pyridin-3-yl)urea]",200 to 1000
15,"N#Cc1cc(NC(=O)Nc2c[nH]c3ccc(Cl)cc23)cnc1C1CC(F)(F)C1 [Compound 257, 1-(5-chloro-1H-indol-3-yl)-3-(5-cyano-6-(3,3-difluorocyclobutyl)pyridin-3-yl)urea]",40 to 200
16,"CN(C(=O)Nc1c[nH]c2ccc(Cl)cc12)c1cnc(N2CCC(F)(F)CC2)c(Cl)c1 [Compound 258, 3-(5-chloro-1H-indol-3-yl)-1-(5-chloro-6-(4,4-difluoropiperidin-1-yl)pyridin-3-yl)-1-methylurea]",200 to 1000
17,"O=C(Nc1cnc(N2CCN(CC3CC3)CC2)c(Cl)c1)Nc1c[nH]c2ccc(Cl)cc12 [Compound 260, 1-(5-chloro-1H-indol-3-yl)-3-(5-chloro-6-(4-(cyclopropylmethyl)piperazin-1-yl)pyridin-3-yl)urea]",40 to 200
18,"O=C(Nc1cnc(N2CCN(CC(F)F)CC2)c(Cl)c1)Nc1c[nH]c2ccc(Cl)cc12 [Compound 261, 1-(5-chloro-1H-indol-3-yl)-3-(5-chloro-6-(4-(2,2-difluoroethyl)piperazin-1-yl)pyridin-3-yl)urea]",40 to 200
